Experimental data published in patent US10160736B2, “1,3,4-oxadiazole and 1,3,4-thiadiazole derivatives as immunomodulators” (Aurigene Discovery Technologies Limited, priority 2013, dated 2018).

Target: T1, Recombinant mouse PD-L1 (Mus musculus, UniProt Q9EP73)
T1 construct: Fc (Fc chimera); purchased R&D Systems 1019-B7-100
Test: Rescue of mouse splenocyte proliferation in the presence of recombinant PD-L1/PD-L2 (CFSE proliferation assay)
Type: cell-based
Details: 100 nM compound; anti-CD3/CD28 stimulated mouse splenocytes + PD-L1; 72 h; normalised to stimulated splenocyte proliferation as 100%; read-out: Percent rescue of splenocyte proliferation (@100 nM compound concentration)
Experimental: Rescue of Mouse Splenocyte Proliferation in the Presence of Recombinant PD-L1/PD-L2:
Recombinant mouse PD-L1 (rm-PDL-1, cat no: 1019-B7-100 and R&D Systems) were used as the source of PD-L1.
Mouse splenocytes harvested from 6-8 weeks old C57 BL6 mice; RPMI 1640 (GIBCO, Cat #11875); DMEM with high glucose (GIBCO, Cat # D6429); Fetal Bovine Serum [Hyclone, Cat # SH30071.03]; Penicillin (10000 unit/ml)-Streptomycin (10,000 μg/ml) Liquid (GIBCO, Cat #15140-122); MEM Sodium Pyruvate solution 100 mM (100×), Liquid (GIBCO, Cat #11360); Nonessential amino acid (GIBCO, Cat #11140); L-Glutamine (GIBCO, Cat #25030); Anti-CD3 antibody (eBiosciences—16-0032); Anti-CD28 antibody (eBiosciences—16-0281); ACK lysis buffer (1 mL) (GIBCO, Cat #-A10492); Histopaque (density—1.083 gm/mL) (SIGMA 10831); Trypan blue solution (SIGMA-T8154); 2 mL Norm Ject Luer Lock syringe-(Sigma 2014-12); 40 μM nylon cell strainer (BD FALCON 35230); Hemacytometer (Bright line-SIGMA Z359629); FACS Buffer (PBS/0.1% BSA): Phosphate Buffered Saline (PBS) pH 7.2 (HiMedia TS1006) with 0.1% Bovine Serum Albumin (BSA) (SIGMA A7050) and sodium azide (SIGMA 08591); 5 mM stock solution of CFSE: CFSE stock solution was prepared by diluting lyophilized CFSE with 180 μL of Dimethyl sulfoxide (DMSO C2H6SO, SIGMA-D-5879) and aliquoted in to tubes for further use. Working concentrations were titrated from 10 μM to 1 μM. (eBioscience-650850-85); 0.05% Trypsin and 0.02% EDTA (SIGMA 59417C); 96-well format ELISA plates (Corning CLS3390); BD FACS caliber (E6016); Recombinant mouse B7-H1/PDL1 Fc Chimera, (rm-PD-L1 cat no: 1019-B7-100).
Splenocytes harvested in a 50 mL falcon tube by mashing mouse spleen in a 40 μm cell strainer were further treated with 1 mL ACK lysis buffer for 5 min at room temperature. After washing with 9 mL of RPMI complete media, cells were re-suspended in 3 mL of 1×PBS in a 15 mL tube. 3 mL of Histopaque was added carefully to the bottom of the tube without disturbing overlaying splenocyte suspension. After centrifuging at 800×g for 20 min at room temperature, the opaque layer of splenocytes was collected carefully without disturbing/mixing the layers. Splenocytes were washed twice with cold 1×PBS followed by total cell counting using Trypan Blue exclusion method and used further for cell based assays.
Splenocytes were cultured in RPMI complete media (RPMI+10% fetal bovine serum+1 mM sodium pyruvate+10,000 units/ml penicillin and 10,000 μg/ml streptomycin) and maintained in a CO2 incubator with 5% CO2 at 37° C.
CFSE is a dye that passively diffuses into cells and binds to intracellular proteins. 1×10^6 cells/mL of harvested splenocytes were treated with 5 μM of CFSE in pre-warmed 1×PBS/0.1% BSA solution for 10 min at 37° C. Excess CFSE was quenched using 5 volumes of ice-cold culture media to the cells and incubated on ice for 5 min. CFSE labelled splenocytes were further given three washes with ice cold complete RPMI media. CFSE labelled 1×10^5 splenocytes added to wells containing either MDA-MB231 cells (1×10^5 cells cultured in high glucose DMEM medium) or recombinant […] PDL-1 (100 ng/mL) and test compounds. Splenocytes were stimulated with anti-mouse CD3 and anti-mouse CD28 antibody (1 μg/mL each), and the culture was further incubated for 72 h at 37° C. with 5% CO2. Cells were harvested and washed thrice with ice cold FACS buffer and % proliferation was analyzed by flow cytometry with 488 nm excitation and 521 nm emission filters.
Percent splenocyte proliferation was analyzed using cell quest FACS program and percent rescue of splenocyte proliferation by compound was estimated after deduction of % background proliferation value and normalising to % stimulated splenocyte proliferation (positive control) as 100%.
Stimulated splenocytes: Splenocytes+anti-CD3/CD28 stimulation
Background proliferation: Splenocytes+anti-CD3/CD28+PD-L1
Compound proliferation: Splenocytes+anti-CD3/CD28+PD-L1+Compound […]

T1 sequence (Q9EP73 with tags, fused parts or gaps limits assumed): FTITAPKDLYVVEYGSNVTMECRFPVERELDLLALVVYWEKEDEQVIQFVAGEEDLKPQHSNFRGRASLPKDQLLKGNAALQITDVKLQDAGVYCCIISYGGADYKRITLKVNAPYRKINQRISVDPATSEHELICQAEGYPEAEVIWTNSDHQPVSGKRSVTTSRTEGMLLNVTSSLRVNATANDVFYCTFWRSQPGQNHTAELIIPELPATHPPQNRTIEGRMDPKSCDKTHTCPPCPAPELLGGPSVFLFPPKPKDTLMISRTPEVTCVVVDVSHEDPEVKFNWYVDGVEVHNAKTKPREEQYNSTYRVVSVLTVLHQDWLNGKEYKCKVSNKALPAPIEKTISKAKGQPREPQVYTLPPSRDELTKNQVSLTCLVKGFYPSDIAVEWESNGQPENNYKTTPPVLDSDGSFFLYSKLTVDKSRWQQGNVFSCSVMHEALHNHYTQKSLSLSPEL

| SMILES | activation at 0.1 µM [%] |
| --- | --- |
| CC(O)[C@H](NC(=O)N[C@@H](CCC(=O)O)c1nnc([C@@H](N)CO)o1)C(=O)O (stereo partly shown) [Compound 15] | 69 |
| CC(O)[C@H](NC(=O)N[C@@H](CC(N)=O)c1nnc([C@@H](N)CO)s1)C(=O)O (stereo partly shown) [Compound 4] | 60 |
| CC(O)[C@H](NC(=O)N[C@@H](CCC(N)=O)c1nnc([C@@H](N)CO)o1)C(=O)O (stereo partly shown) [Compound 16] | 56 |
| CC(O)[C@H](NC(=O)N[C@@H](CC(N)=O)c1nnc([C@@H](N)CO)o1)C(=O)O (stereo partly shown) [Compound 2] | 80.3 |
| NC(=O)CC[C@H](NC(=O)N[C@@H](CO)C(=O)O)c1nnc([C@@H](N)CO)o1 [Compound 17] | 53 |
| CC(O)[C@H](NC(=O)N[C@@H](CC(=O)O)c1nnc([C@@H](N)CO)o1)C(=O)O (stereo partly shown) [Compound 18] | 68 |
| NC(=O)C[C@H](N)c1nnc([C@@H](N)CO)s1 [Compound 3] | 48.4 |
| CC(O)[C@H](NC(=O)N[C@@H](C)c1nnc([C@@H](N)CO)o1)C(=O)O (stereo partly shown) [Compound 1] | 61.2 |
| NC(=O)C[C@H](NC(=O)N[C@@H](CO)C(=O)O)c1nnc([C@@H](N)CO)o1 [Compound 14] | 53 |
| CC(O)[C@H](N)c1nnc([C@H](CCC(N)=O)NC(=O)N[C@@H](CO)C(=O)O)o1 (stereo partly shown) [Compound 12] | 92 |
| CC(O)[C@H](NC(=O)N[C@@H](CCC(N)=O)c1nnc([C@@H](N)C(C)O)o1)C(=O)O (stereo partly shown) [Compound 13] | 75 |
| CC(O)[C@H](NC(=O)N[C@@H](CC(N)=O)c1nnc([C@@H](N)C(C)O)o1)C(=O)O (stereo partly shown) [Compound 9] | 74 |
| CC(O)[C@H](N)c1nnc([C@H](CC(N)=O)NC(=O)N[C@@H](CO)C(=O)O)o1 (stereo partly shown) [Compound 10] | 58 |
